“Also recorded” adds a separate entry of the source. Values belong to the compound of their own block, whether it stands above or below them.
Assays:
[1] = biological target: CSK (Homo sapiens, UniProt P41240); experiment: Global quantitative proteomics; type: cell-based; conditions: MOLT-4 cells, 1 μM, 5 h
[2] = biological target: CDK17 (Homo sapiens, UniProt Q00537); experiment: Global quantitative proteomics; type: cell-based; conditions: MOLT-4 cells, 1 μM, 5 h, relative protein abundance
[3] = biological target: LIMK2 (Homo sapiens, UniProt P53671); experiment: Global quantitative proteomics; type: cell-based; conditions: MOLT-4 cells, 1 μM, 5 h, relative protein abundance
LIMK2, sequence (P53671 whole entry): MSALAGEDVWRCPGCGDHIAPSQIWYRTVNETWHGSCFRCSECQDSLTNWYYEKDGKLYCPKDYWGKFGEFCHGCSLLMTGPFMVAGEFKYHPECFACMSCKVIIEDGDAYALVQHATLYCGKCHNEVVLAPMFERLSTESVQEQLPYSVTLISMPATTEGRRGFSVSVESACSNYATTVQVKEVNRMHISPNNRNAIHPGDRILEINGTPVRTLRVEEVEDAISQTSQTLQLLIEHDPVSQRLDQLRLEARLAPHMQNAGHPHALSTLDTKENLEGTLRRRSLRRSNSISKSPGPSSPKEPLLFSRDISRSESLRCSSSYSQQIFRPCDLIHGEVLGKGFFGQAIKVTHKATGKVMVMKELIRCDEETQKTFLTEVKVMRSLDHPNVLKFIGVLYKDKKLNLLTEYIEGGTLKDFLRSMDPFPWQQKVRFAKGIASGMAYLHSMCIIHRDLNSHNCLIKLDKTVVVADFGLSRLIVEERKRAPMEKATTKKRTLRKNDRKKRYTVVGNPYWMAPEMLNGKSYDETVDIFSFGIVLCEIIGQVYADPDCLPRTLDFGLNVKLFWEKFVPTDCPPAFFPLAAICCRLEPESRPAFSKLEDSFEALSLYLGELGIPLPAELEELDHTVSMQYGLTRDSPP

[4] = biological target: T1, GCK (Homo sapiens, UniProt Q12851); experiment: KiNativ live cell profiling; type: cell-based; conditions: CRBN−/− MOLT-4 cells, 1 μM, 5 h
T1 sequence (Q12851 1-820): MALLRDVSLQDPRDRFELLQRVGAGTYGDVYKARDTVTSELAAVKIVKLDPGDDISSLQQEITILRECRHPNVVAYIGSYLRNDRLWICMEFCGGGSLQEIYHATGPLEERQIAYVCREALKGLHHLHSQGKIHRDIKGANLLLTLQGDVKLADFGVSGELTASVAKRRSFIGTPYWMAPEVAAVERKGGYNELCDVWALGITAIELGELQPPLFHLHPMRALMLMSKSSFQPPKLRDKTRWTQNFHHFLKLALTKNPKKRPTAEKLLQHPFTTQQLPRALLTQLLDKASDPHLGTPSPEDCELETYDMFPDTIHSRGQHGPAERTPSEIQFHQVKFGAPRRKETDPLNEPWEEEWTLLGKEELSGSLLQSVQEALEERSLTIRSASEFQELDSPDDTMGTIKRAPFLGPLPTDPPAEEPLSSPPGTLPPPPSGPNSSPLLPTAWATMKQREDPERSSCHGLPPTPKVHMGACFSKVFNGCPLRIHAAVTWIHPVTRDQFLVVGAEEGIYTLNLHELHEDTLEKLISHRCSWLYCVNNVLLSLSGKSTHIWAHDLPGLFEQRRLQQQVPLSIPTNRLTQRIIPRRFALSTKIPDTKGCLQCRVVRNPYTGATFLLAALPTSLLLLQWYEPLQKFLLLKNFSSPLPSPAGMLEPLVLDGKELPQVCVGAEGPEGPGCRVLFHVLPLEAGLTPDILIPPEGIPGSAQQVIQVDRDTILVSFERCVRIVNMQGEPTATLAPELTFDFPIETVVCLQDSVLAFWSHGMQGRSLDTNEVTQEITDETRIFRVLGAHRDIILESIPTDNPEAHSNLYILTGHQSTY

[5] = biological target: LYN (Homo sapiens, UniProt P07948); type: cell-based; conditions: HEK293T cells, 1 μM, 5 h
LYN, sequence (P07948 2-512 limits assumed): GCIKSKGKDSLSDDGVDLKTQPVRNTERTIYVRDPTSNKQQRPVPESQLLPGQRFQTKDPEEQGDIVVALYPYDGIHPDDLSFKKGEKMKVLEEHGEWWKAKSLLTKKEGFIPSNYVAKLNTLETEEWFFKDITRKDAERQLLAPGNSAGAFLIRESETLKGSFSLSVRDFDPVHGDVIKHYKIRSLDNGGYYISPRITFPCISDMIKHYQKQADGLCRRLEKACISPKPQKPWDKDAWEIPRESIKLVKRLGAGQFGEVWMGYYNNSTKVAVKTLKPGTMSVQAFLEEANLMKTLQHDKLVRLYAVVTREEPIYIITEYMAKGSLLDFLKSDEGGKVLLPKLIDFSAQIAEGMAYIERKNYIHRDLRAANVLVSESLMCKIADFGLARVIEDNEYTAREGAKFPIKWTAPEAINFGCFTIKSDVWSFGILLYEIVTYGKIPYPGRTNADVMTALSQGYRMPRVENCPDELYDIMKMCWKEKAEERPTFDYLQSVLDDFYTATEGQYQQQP
LYN, sequence (Q96SW2 whole entry partner): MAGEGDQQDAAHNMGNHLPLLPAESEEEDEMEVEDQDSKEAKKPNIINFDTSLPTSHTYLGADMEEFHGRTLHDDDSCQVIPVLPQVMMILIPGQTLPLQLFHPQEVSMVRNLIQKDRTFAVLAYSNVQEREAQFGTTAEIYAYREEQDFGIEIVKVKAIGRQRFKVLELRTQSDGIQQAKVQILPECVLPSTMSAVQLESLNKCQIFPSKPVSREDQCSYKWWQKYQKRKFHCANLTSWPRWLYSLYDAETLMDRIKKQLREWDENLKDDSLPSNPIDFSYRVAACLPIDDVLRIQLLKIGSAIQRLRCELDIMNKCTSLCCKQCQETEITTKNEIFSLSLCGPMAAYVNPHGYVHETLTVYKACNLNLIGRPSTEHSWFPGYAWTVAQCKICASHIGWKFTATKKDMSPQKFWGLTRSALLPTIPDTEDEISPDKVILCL
LYN, sequence (Q16531 2-1140 partner limits assumed): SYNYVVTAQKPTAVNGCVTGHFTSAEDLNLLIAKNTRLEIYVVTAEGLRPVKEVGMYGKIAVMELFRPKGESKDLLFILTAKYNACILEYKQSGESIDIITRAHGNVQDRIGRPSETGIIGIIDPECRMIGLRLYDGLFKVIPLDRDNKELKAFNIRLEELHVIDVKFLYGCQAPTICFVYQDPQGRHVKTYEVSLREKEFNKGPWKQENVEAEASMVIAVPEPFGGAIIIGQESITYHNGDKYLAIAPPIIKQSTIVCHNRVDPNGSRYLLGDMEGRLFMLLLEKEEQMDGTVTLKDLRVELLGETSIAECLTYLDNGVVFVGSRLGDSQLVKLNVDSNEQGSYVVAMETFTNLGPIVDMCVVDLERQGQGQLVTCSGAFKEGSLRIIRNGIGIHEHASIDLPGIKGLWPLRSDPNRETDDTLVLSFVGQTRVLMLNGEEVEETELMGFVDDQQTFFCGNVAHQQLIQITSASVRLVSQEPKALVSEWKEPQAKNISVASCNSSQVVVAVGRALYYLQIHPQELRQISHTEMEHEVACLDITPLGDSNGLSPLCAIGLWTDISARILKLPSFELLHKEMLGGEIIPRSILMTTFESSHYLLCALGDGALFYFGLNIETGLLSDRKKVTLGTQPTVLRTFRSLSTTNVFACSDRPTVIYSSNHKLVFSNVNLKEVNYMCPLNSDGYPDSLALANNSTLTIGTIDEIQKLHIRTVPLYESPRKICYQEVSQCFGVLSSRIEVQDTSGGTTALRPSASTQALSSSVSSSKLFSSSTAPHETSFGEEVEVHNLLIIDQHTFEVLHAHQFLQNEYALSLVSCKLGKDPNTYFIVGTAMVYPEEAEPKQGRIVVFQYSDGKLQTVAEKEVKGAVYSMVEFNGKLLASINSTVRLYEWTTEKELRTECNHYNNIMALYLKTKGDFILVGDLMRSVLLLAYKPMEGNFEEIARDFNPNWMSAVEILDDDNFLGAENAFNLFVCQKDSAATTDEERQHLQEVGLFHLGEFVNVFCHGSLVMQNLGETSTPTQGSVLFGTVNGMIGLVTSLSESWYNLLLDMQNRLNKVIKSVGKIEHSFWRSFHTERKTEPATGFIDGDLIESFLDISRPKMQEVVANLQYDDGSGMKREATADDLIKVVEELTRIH

[6] = biological target: T1, GCK; experiment: Global quantitative proteomics, degradation of GCK; type: cell-based; conditions: 1 μM, 5 h
[7] = biological target: YES1 (Homo sapiens, UniProt P07947); type: cell-based; conditions: HEK293T cells, 1 μM, 5 h
YES1, sequence (P07947 2-543 limits assumed): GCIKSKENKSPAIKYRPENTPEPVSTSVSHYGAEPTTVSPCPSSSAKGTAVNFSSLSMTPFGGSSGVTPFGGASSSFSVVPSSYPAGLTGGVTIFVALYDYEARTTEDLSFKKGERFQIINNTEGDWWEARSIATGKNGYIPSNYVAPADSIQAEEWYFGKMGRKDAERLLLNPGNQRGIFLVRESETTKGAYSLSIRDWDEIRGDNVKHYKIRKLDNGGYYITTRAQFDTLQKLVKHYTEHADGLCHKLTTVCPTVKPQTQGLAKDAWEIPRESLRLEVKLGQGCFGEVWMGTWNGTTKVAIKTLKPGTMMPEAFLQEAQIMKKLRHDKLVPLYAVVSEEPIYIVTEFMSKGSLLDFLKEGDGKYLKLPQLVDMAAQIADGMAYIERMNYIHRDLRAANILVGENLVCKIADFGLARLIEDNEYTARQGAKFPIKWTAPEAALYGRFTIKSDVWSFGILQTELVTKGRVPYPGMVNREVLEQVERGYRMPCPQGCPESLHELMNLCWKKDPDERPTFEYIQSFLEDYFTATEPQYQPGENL
YES1, sequence (Q96SW2 whole entry partner): as the sequence (Q96SW2 whole entry partner) above
YES1, sequence (Q16531 2-1140 partner limits assumed): as the sequence (Q16531 2-1140 partner limits assumed) above

[8] = biological target: IRAK1 (Homo sapiens, UniProt P51617); type: cell-based; conditions: HEK293T cells, 1 μM, 5 h
IRAK1, sequence (P51617 whole entry): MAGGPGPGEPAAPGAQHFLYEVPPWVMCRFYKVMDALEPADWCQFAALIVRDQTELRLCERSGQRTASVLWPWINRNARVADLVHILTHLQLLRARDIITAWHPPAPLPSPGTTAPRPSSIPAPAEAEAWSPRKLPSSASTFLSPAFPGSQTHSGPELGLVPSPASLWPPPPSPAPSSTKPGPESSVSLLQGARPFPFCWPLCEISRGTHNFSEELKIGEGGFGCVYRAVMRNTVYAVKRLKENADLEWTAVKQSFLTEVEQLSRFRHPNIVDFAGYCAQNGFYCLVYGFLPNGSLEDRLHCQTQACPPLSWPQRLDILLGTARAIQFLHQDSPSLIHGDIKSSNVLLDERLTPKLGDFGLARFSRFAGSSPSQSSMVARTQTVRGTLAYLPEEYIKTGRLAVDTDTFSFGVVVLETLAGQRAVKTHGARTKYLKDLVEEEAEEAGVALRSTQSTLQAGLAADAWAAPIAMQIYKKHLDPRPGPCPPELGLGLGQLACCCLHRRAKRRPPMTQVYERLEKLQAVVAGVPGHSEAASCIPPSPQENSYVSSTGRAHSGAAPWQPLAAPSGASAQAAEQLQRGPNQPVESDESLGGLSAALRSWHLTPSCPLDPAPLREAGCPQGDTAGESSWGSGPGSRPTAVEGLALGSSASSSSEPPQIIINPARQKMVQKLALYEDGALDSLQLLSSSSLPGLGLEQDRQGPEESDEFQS
IRAK1, sequence (Q96SW2 whole entry partner): as the sequence (Q96SW2 whole entry partner) above
IRAK1, sequence (Q16531 2-1140 partner limits assumed): as the sequence (Q16531 2-1140 partner limits assumed) above

[9] = tested on: MOLT-4 cells; experiment: Time-course RNA-sequencing; type: cell-based, human; conditions: for transcript levels: 1 μM
[10] = biological target: BUB1 (Homo sapiens, UniProt O43683); type: cell-based; conditions: MOLT-4 and MM.1S cell lines
[11] = biological target: FLAG-tagged CRBN (Homo sapiens, UniProt Q96SW2); experiment: FLAG-CRBN AP-MS, proteins enriched with CRBN; type: cell-based; conditions: HEK293T cells, 1 μM, 5 h, relative to SB1-G-187 and WH-10417–099
FLAG-tagged CRBN, sequence (Q96SW2 whole entry): as the sequence (Q96SW2 whole entry partner) above
FLAG-tagged CRBN, sequence (Q16531 2-1140 partner limits assumed): as the sequence (Q16531 2-1140 partner limits assumed) above

[12] = tested on: MM.1S multiple myeloma cell line; experiment: CellTiter-Glo viability assay; type: cell-based, human; conditions: MM.1S cells, 72 h, compared with parental inhibitor alisertib
[13] = biological target: T2, AURKA (Aurora A) (Homo sapiens, UniProt O14965); experiment: Global quantitative proteomics and immunoblot, degradation of AURKA; type: cell-based; conditions: MOLT-4 cells 1 μM 5 h proteomics; validated by immunoblotting in MM.1S cells
T2 sequence (O14965 1-403): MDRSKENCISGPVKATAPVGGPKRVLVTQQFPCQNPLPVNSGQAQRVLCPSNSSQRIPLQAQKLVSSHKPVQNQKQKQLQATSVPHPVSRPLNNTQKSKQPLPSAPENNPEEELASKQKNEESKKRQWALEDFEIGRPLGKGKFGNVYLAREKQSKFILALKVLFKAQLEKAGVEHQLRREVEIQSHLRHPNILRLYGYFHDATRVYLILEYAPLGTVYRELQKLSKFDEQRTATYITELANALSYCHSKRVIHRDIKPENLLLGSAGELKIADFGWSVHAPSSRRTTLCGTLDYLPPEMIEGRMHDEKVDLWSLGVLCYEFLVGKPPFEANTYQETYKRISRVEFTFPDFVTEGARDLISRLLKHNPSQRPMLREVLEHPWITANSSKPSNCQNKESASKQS

CDK17, sequence (Q00537 whole entry): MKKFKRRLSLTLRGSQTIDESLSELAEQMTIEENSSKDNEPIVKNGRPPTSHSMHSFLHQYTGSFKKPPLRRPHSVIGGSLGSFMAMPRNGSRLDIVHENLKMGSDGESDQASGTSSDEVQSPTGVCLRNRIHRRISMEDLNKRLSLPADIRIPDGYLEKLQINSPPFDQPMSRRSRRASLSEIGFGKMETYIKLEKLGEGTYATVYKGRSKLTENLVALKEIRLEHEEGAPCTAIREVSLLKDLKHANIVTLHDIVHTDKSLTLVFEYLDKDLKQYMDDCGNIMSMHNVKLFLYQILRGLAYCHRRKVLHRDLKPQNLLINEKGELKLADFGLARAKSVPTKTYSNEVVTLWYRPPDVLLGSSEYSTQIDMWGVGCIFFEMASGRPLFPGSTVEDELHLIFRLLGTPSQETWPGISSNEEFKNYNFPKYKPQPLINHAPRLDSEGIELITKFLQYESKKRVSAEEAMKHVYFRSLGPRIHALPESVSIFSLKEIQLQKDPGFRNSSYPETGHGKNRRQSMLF

SMILES: Cc1nc(Nc2ncc(C(=O)Nc3c(C)cccc3Cl)s2)cc(N2CCN(CC(=O)NCCCCNC(=O)COc3cccc4c3C(=O)N(C3CCC(=O)NC3=O)C4=O)CC2)n1 (stereo not shown) [DB-3-291]
- selectivity among CSK-degrading compounds [1]: greatest selectivity
- degradation of CSK ([1]; compared with the 15 library compounds that target CSK): strongest degradation

SMILES: Cc1ccc(C(=O)Nc2ccc(CN3CCN(CCCOCCOCCOCCNC(=O)COc4cccc5c4C(=O)N(C4CCC(=O)NC4=O)C5=O)CC3)c(C(F)(F)F)c2)cc1C#Cc1cnc2cccnn12 (stereo not shown) [SB1-G-187]
- GCK engagement, inhibition of probe binding [4]: 94 %I
- LYN complex formation with CRBN and degradation [5]: complex formation and degradation
- degradation of GCK [6]: degraded
- YES1 complex formation with CRBN and degradation [7]: complex formation and degradation
- IRAK1 complex formation with CRBN and degradation [8]: complex formation and degradation

SMILES: COc1cc(Nc2ncc3c(n2)-c2ccc(Cl)cc2C(c2c(F)cccc2OC)=NC3)ccc1C(=O)NCCCOCCOCCOCCCNC(=O)COc1cccc2c1C(=O)N(C1CCC(=O)NC1=O)C2=O (stereo not shown) [dAURK-4]
- antiproliferative effects [12]: superior antiproliferative effects
- degradation of AURKA [13]: potent and selective degradation

Further lines, with some results ahead:

- degradation of LIMK2 [3]: potent and selective degradation
SMILES: Cc1ncsc1-c1ccc([C@H](C)NC(=O)[C@@H]2C[C@@H](O)CN2C(=O)[C@@H](NC(=O)CCOCCOCCNc2nccc(-c3sc(C(C)(C)C)nc3-c3cccc(NS(=O)(=O)c4c(F)cccc4F)c3F)n2)C(C)(C)C)cc1 [DD-03–156]
- degradation of CDK17 [2]: potent and selective degradation; also recorded: exquisite

- GCK engagement, inhibition of probe binding [4]: 50 %I
- transcript levels ([9]; 8 and 12 h time points): complete transcriptional collapse
- degradation of GCK [6]: not degraded
- degradation of BUB1 [10]: degraded
- enriched proteins in the CRBN AP-MS [11]: fewer enriched proteins
SMILES: CC(C)S(=O)(=O)c1ccccc1Nc1nc(Nc2ccc(N3CCN(CCOCCNC(=O)CNc4cccc5c4C(=O)N(C4CCC(=O)NC4=O)C5=O)CC3)cc2)ncc1Cl (stereo not shown) [SK-3–91]
- transcript levels ([9]; up until the 4 h time point): largely unchanged
- transcriptional changes of CAMKK2, DNAPK, IKKe and JAK2 ([9]; 4 h treatment): no upregulation
- YES1 complex formation with CRBN and degradation [7]: complex formation does not predict degradation
